Reference: paper PMC11641365, “Evaluation of In Vitro Biological Activity of Flavanone/Chromanone Derivatives: Molecular Analysis of Anticancer Mechanisms in Colorectal Cancer” (International Journal of Molecular Sciences, 2024)

Legend:
LoVo [1] = test: Cell cycle analysis via flow cytometry (propidium iodide); assay type: cell-based, human; settings: compound at IC50, 24 h, vs control
Method: (§1) The most commonly used fluorescent dyes for cell cycle analysis are fluorochromes that penetrate the cell membrane into the interior of permeabilized cells and bind stoichiometrically to DNA via intercalation, e.g., DAPI, propidium iodide (PI). The analysis is performed on cells fixed in ethanol. In this work, the cell cycle analysis was performed using the method described by Darzynkiewicz and Juan.
(§2) Cells (10 × 10^3) were seeded in 35 mm dishes and cultured in the medium for 24 h to attain the logarithmic growth phase. […] Subsequently, cells were trypsinized and centrifuged for 10 min at 400× g at 4 °C. The cell suspension in 100 μL of PBS was fixed in 1 mL of 70% ethanol (−20 °C) and stored at this temperature until analysis. Immediately before analysis, the ethanol-fixed cell suspension was centrifuged at 10,000 rpm for 10 min at 4 °C. The pellet was washed with cold (4 °C) PBS to remove residual ethanol, and the cell suspension was centrifuged again under the same conditions. A volume of 300 μL of PBS containing 4 mg/mL propidium iodide (final concentration 75 μM) and 1 mg/mL RNAse A (final concentration 20 μg/mL) was added to the cell pellet and incubated for at least 30 min at 37 °C in the dark. Stained cells were analyzed using a flow cytometer (Becton Dickinson, Franklin Lakes, NJ, USA), counting 10,000 cells in each sample. Data were analyzed using FlowJo 10.10 software (FlowJo, Williamson Way Ashland, OR, USA).

HCT 116 = test: as above; assay type: cell-based, human; settings: compound at IC50, 24 h, vs control
Method: as §1, §2

SW620 [2] = test: as above; assay type: cell-based, human; settings: compound at IC50, 24 h; for Increase in the G2/M phase cell fraction: vs control
Method: as §1, §2

[3] = tested on: HCT 116, SW620, LoVo, Caco-2, and HT-29 cancer cell lines; test: Alkaline comet assay (DNA damage), all cell lines; assay type: cell-based, human; settings: compound at IC50, 12 h; all five cell lines
Excerpt: Single-cell gel electrophoresis, also known as the comet assay, is a rapid and sensitive method for assessing DNA damage at the single-cell level. Cells are lysed and electrophoresed. Both single-strand and double-strand breaks are detected under alkaline conditions. The released DNA is denatured and moves in the agarose gel toward the anode during electrophoresis. The image, obtained after staining with the fluorescent dye 4′,6-diamidino-2-phenylindole (DAPI), resembles a “comet” with a distinct “head” (intact DNA) and “tail” (damaged DNA fragments). The length of the tail depends on the number and size of the broken DNA strands.
Cells (1 × 10^3) were seeded in 35 mm dishes and cultured in the medium for 24 h to attain the logarithmic growth phase. […] Subsequently, cells were trypsinized and centrifuged for 10 min at 100× g at 4 °C. A small amount of PBS and a 0.5% solution of low-melting-point agarose (LMP agarose) were added to the obtained cell pellet and placed on a glass slide covered with two layers of normal-melting-point agarose (NMP agarose). The slides were incubated for 24 h in a lysis buffer (2.5 M NaCl, 100 mM, Na2EDTA, 10 mM, Tris, 1% Triton X-100) to release DNA. […] Quantitative analysis of the DNA comet image of preparations stained with DAPI solution (2 μg/L) was performed using a camera connected to a fluorescence microscope. The comet DNA analysis was performed under a Nikon Eclipse fluorescence microscope (Nikon, Tokyo, Japan) equipped with a 4910 COHU video camera (Cohu, Inc., San Diego, CA, USA) and a computer with Lucia-Comet v. […] Each time, from each preparation, 100 randomly selected comets were counted. The extent of DNA damage is quantified by measuring the length of the comet tail and the amount of DNA it contains. The Lucia Comet software calculated the percentage of DNA damage based on measurements of color intensity and comet tail length. The intensity of fluorescence was determined by the software, which calculated a series of parameters characterizing the extent of DNA damage for each cell. […]

LoVo [4] = test: MTT cell viability assay; assay type: cell-based; settings: Homo sapiens, 24 h incubation with compound, mean ± SD of three experiments, read-out: Cytotoxic effect, IC50
Method: (§3) The cytotoxic activity of the 3-benzylideneflavanones, 3-benzylidenechromanones derivatives (compounds 1, 2, 3, 4, 5) and 5′-(3-methoxyphenyl)-2-phenyl-4′,5′-dihydro-4H-spiro[chromano-3,3′-pirazol]-4-one (compound 3a) was evaluated using the MTT assay (4,5-dimethylthiazol-2-yl)-2,5-diphenyltetrazoliumbromide), a colorimetric method that quantifies cell viability.
(§4) Cell viability was determined using the metabolic microplate spectrophotometric assay with Methylthiazolyl diphenyltetrazolium bromide (MTT) (Sigma-Aldrich; St. Louis, MO, USA). The MTT method belongs to metabolic tests for determining cell viability and consists of measuring the absorbance of a violet solution of formazan, a product of the reduction of a water-soluble yellow MTT by oxidoreductive enzymes (mainly mitochondrial succinate dehydrogenase) of living cells. The amount of the reaction product (water-insoluble formazan crystals) is proportional to the number of living and metabolically active cells in the sample. In the case of damaged or dead cells, formazan is formed in smaller amounts, or it is not formed.
(§5) The appropriate number of cells for a given cell line (6–8 × 10^3 cells/mL) were seeded onto colorless, sterile 96-well microplates (Nunc, Roskilde, Denmark) in the number appropriate for a given cell line. After 24 h of culture, various concentrations of the studied compounds (10^−7–10^−5 M) freshly prepared in DMSO (final concentration DMS < 0.1%) and diluted with complete culture medium were added and incubated in a CO2 incubator for 24 h. After this time, the medium was removed; the cell monolayer was washed twice with sterile PBS solution; and fresh culture medium was added to the microplate wells. After 48 h of cell culture, the MTT test was performed. A volume of 50 μL of tetrazolium salt solution (final concentration 0.05 mg/mL) was added to each microplate well. The microplate was placed for 3–4 h (depending on the cell line) in a CO2 incubator. After incubation, 100 μL of DMSO was added to the wells of the microplate to dissolve the purple formazan crystals formed in the living cell environment. The absorbance of the formazan solution, after gentle mixing, was read at a wavelength of λ = 580 nm and a reference wavelength of λ = 720 nm (Biotek Power Wave HT, Biotek Instruments, Winooski, VT, USA). The percentage of living cells was calculated by comparing the absorbance value of the tested samples with the absorbance value of the control (cells not treated with compounds). The absorbance of the control was taken as 100%.

SW620 [5] = test: MTT cell viability assay; assay type: cell-based; settings: Homo sapiens, SW-620, 24 h incubation with compound, mean ± SD of three experiments, read-out: Cytotoxic effect, IC50
Method: as §3, §4, §5

| Compound | Increase in the G2/M phase cell percentage (LoVo [1]) | Increase in the G2/M phase cell fraction (HCT 116) | Change in cell cycle parameters or G2/M phase arrest (SW620 [2]) | Genotoxic properties (comet assay) [3] | IC50 (LoVo [4]) [µM] | IC50 (SW620 [5]) [µM] | Increase in the G2/M phase cell fraction (SW620 [2]) |
| --- | --- | --- | --- | --- | --- | --- | --- |
| O=C1/C(=C/c2ccccc2)COc2ccccc21 [Compound 1] | approximately 10% | approximately 10% | no statistically significant changes | potent genotoxic properties | 12.6 ± 1.5 | 8.1 ± 1.7 |  |
| COc1cccc(/C=C2/C(=O)c3ccccc3OC2c2ccccc2)c1 (stereo not drawn) [Compound 3] | approximately 35% | approximately 30% |  | potent genotoxic properties | 23.2 ± 1.4 | 12.4 ± 2.1 | approximately 20% |
| O=C1/C(=C/c2ccccc2)C(c2ccccc2)Oc2ccccc21 (stereo not drawn) [Compound 5] | approximately 20% | 20% |  | potent genotoxic properties | 19.4 ± 2.1 | 16.7 ± 3.1 | ~13% |
